In turn, `Cc1cc(-c2cccc(C3=Nc4ccccc4NC(=O)C3)c2)ccn1` [Example 71, 4-[3-(2-Methyl-pyridin-4-yl)-phenyl]-1,3-dihydro-benzo[b][1,4]diazepin-2-one] registered a melting point of 192 °C.
The molecule `Cc1cc(-c2cccc(C3=Nc4ccc(Cl)cc4NC(=O)C3)c2)ccn1` [Example 74, 8-Chloro-4-[3-(2-methyl-pyridin-4-yl)-phenyl]-1,3-dihydro-benzo[b][1,4]diazepin-2-one] displayed a melting point of 215 °C.
Turning to `Cc1cc(-c2cccc(C3=Nc4cc(NCC(C)C)c(Cl)cc4NC(=O)C3)c2)ccn1` [Example 79, 8-Chloro-7-isobutylamino-4-[3-(2-methyl-pyridin-4-yl)-phenyl]-1,3-dihydro-benzo[b][1,4]diazepin-2-one], the melting point is 220 °C.
As to `CCCN(C)c1cc2c(cc1C(F)(F)F)NC(=O)CC(c1cccc(-c3ccncc3)c1)=N2` [Example 81, 7-(Methyl-propyl-amino)-4-(3-pyridin-4-yl-phenyl)-8-trifluoromethyl-1,3-dihydro-benzo[b][1,4]diazepin-2-one], the melting point amounted to 192 °C.
For `Cc1cc(-c2cccc(C3=Nc4cc(Cl)c(C(F)(F)F)cc4NC(=O)C3)c2)ccn1` [Example 82, 7-Chloro-4-[3-(2-methyl-pyridin-4-yl)-phenyl]-8-trifluoromethyl-1,3-dihydro benzo[b][1,4]diazepin-2-one], the melting point amounted to 221 °C.
`CN(C)c1cc2c(cc1C(F)(F)F)NC(=O)CC(c1cccc(-c3cncnc3)c1)=N2` [Example 85, 7-Dimethylamino-4-(3-pyrimidin-5-yl-phenyl)-8-trifluoromethyl-1,3-dihydro-benzo[b][1,4]diazepin-2-one] yielded a melting point of 200 °C.
In turn, `Cc1cc2c(cc1Cl)NC(=O)CC(c1cccc(-c3cnccn3)c1)=N2` [Example 86, 8-Chloro-7-methyl-4-(3-pyrazin-2-yl-phenyl)-1,3-dihydro-benzo[b][1,4]diazepin-2-one] gave a melting point of 232 °C.
Molecule `O=C1CC(c2cccc(-c3cnccn3)c2)=Nc2cc(Cl)c(Cl)cc2N1` [Example 88, 7,8-Dichloro-4-(3-pyrazin-2-yl-phenyl)-1,3-dihydro-benzo[b][1,4]diazepin-2-one] came in with a melting point of 268 °C.
As for `O=C1CC(c2cccc(-c3cnccn3)c2)=Nc2ccc(C(F)(F)F)cc2N1` [Example 89, 4-(3-Pyrazin-2-yl-phenyl)-8-trifluoromethyl-1,3-dihydro-benzo[b][1,4]diazepin-2-one], the melting point stood at 223 °C.
Then `CN(C)c1cc2c(cc1C(F)(F)F)NC(=O)CC(c1cccc(-c3cnccn3)c1)=N2` [Example 90, 7-Dimethylamino-4-(3-pyrazin-2-yl-phenyl)-8-trifluoromethyl-1,3-dihydro-benzo[b][1,4]diazepin-2-one], with 204 °C.
In the case of `O=C1CC(c2cccc(-c3cnccn3)c2)=Nc2cc(Cl)c(C(F)(F)F)cc2N1` [Example 91, 7-Chloro-4-(3-pyrazin-2-yl-phenyl)-8-trifluoromethyl-1,3-dihydro-benzo[b][1,4]diazepin-2-one] it was 235 °C; in that of `O=C1CC(c2cccc(-c3cnccn3)c2)=Nc2ccc(-c3ccccc3F)cc2N1` [Example 92, 8-(2-Fluoro-phenyl)-4-(3-pyrazin-2-yl-phenyl)-1,3-dihydro-benzo[b][1,4]diazepin-2-one], 241 °C; in that of `Cc1cc2c(cc1C(F)(F)F)N=C(c1cccc(-c3cnccn3)c1)CC(=O)N2` [Example 93, 8-Methyl-4-(3-pyrazin-2-yl-phenyl)-7-trifluoromethyl-1,3-dihydro-benzo[b][1,4]diazepin-2-one], 216 °C.
Molecule `O=C1CC(c2cccc(-c3cncnc3)c2)=Nc2ccc(Cl)cc2N1` [Example 94, 8-Chloro-4-(3-pyrimidin-5-yl-phenyl)-1,3-dihydro-benzo[b][1,4]diazepin-2-one] displayed a melting point of 234 °C.
In the case of `O=C1CC(c2cccc(-c3cncnc3)c2)=Nc2cc(Cl)c(C(F)(F)F)cc2N1` [Example 95, 7-Chloro-4-(3-pyrimidin-5-yl-phenyl)-8-trifluoromethyl-1,3-dihydro-benzo[b][1,4]diazepin-2-one] it was 222 °C; in that of `CC(C)CNc1cc2c(cc1Cl)NC(=O)CC(c1cccc(-c3cncnc3)c1)=N2` [Example 96, 8-Chloro-7-isobutylamino-4-(3-pyrimidin-5-yl-phenyl)-1,3-dihydro-benzo[b][1,4]diazepin-2-one], 241 °C; in that of `CCCN(C)c1cc2c(cc1C(F)(F)F)NC(=O)CC(c1cccc(-c3cncnc3)c1)=N2` [Example 99, 7-(Methyl-propyl-amino)-4-(3-pyrimidin-5-yl-phenyl)-8-trifluoromethyl-1,3-dihydro-benzo[b][1,4]diazepin-2-one], 197 °C.
In the case of `O=C1CC(c2cccc(-c3ccncc3)c2)=Nc2cc(C(F)(F)F)c(Cl)cc2N1` [Example 100, 8-Chloro-4-(3-pyridin-4-yl-phenyl)-7-trifluoromethyl-1,3-dihydro-benzo[b][1,4]diazepin-2-one] it was 200 °C.
In the case of `CCCN(C)c1cc2c(cc1C(F)(F)F)NC(=O)CC(c1cccc(-c3cnccn3)c1)=N2` [Example 102, 7-(Methyl-propyl-amino)-4-(3-pyrazin-2-yl-phenyl)-8-trifluoromethyl-1,3-dihydro-benzo[b][1,4]diazepin-2-one] it was 201 °C.
`Cc1cc2c(cc1Cl)N=C(c1cccc(-c3cnccn3)c1)CC(=O)N2` [Example 103, 7-Chloro-8-methyl-4-(3-pyrazin-2-yl-phenyl)-1,3-dihydro-benzo[b][1,4]diazepin-2-one]: the melting point was found to be 218 °C.
`Cc1cc2c(cc1C(F)(F)F)N=C(c1cccc(-c3cncnc3)c1)CC(=O)N2` [Example 106, 8-Methyl-4-(3-pyrimidin-5-yl-phenyl)-7-trifluoromethyl-1,3-dihydro-benzo[b][1,4]diazepin-2-one] came in with a melting point of 238 °C.
In turn, `O=C1CC(c2cccc(-c3ccccn3)c2)=Nc2cc(C(F)(F)F)c(Cl)cc2N1` [Example 107, 8-Chloro-4-(3-pyridin-2-yl-phenyl)-7-trifluoromethyl-1,3-dihydro-benzo[b][1,4]diazepin-2-one] yielded a melting point of 208 °C.
Then `Cc1cc(-c2cccc(C3=Nc4ccc(-n5cccc5)cc4NC(=O)C3)c2)ccn1` [Example 108, 4-[3-(2-Methyl-pyridin-4-yl)-phenyl]-8-pyrrol-1-yl-1,3-dihydro-benzo[b][1,4]diazepin-2-one], with 206 °C; and `O=C1CC(c2cccc(-c3cnccn3)c2)=Nc2cc(C(F)(F)F)c(Cl)cc2N1` [Example 110, 8-Chloro-4-(3-pyrazin-2-yl-phenyl)-7-trifluoromethyl-1,3-dihydro-benzo[b][1,4]diazepin-2-one], with 214 °C.
In the case of `O=C1CC(c2cccc(-c3cncnc3)c2)=Nc2cc(C(F)(F)F)c(Cl)cc2N1` [Example 111, 8-Chloro-4-(3-pyrimidin-5-yl-phenyl)-7-trifluoromethyl-1,3-dihydro-benzo[b][1,4]diazepin-2-one] it was 217 °C; in that of `O=C1CC(c2cccc(-c3cnccn3)c2)=Nc2cc(OCC(F)(F)F)c(C(F)(F)F)cc2N1` [Example 112, 4-(3-Pyrazin-2-yl-phenyl)-7-(2,2,2-trifluoro-ethoxy)-8-trifluoromethyl-1,3-dihydro-benzo[b][1,4]diazepin-2-one], 242 °C.
As to `O=C1CC(c2cccc(-c3cccnc3)c2)=Nc2cc(C(F)(F)F)c(Cl)cc2N1` [Example 113, 8-Chloro-4-(3-pyridin-3-yl-phenyl)-7-trifluoromethyl-1,3-dihydro-benzo[b][1,4]diazepin-2-one], the melting point is 208 °C.
Then `Cc1cc(-c2cccc(C3=Nc4cc(OCC(F)(F)F)c(C(F)(F)F)cc4NC(=O)C3)c2)ccn1` [Example 114, 4-[3-(2-Methyl-pyridin-4-yl)-phenyl]-7-(2,2,2-trifluoro-ethoxy)-8-trifluoromethyl-1,3-dihydro-benzo[b][1,4]diazepin-2-one], with 223 °C; and `Cc1cc(-c2cccc(C3=Nc4cc(F)c(F)cc4NC(=O)C3)c2)ccn1` [Example 115, 7,8-Difluoro-4-[3-(2-methyl-pyridin-4-yl)-phenyl]-1,3-dihydro-benzo[b][1,4]diazepin-2-one], with 217 °C; and `O=C1CC(c2cccc(-c3cccnc3)c2)=Nc2cc(F)c(F)cc2N1` [Example 116, 7,8-Difluoro-4-(3-pyridin-3-yl-phenyl)-1,3-dihydro-benzo[b][1,4]diazepin-2-one], with 246 °C.
In the case of `Cc1cc(-c2cccc(C3=Nc4ccc(Cl)cc4NC(=O)C3)c2)cc(C)n1` [Example 118, 8-Chloro-4-[3-(2,6-dimethyl-pyridin-4-yl)-phenyl]-1,3-dihydro-benzo[b][1,4]diazepin-2-one] it was 236 °C; in that of `Cc1cc(-c2cccc(C3=Nc4cc(F)c(F)cc4NC(=O)C3)c2)cc(C)n1` [Example 126, 7,8-Difluoro-4-[3-(2,6-dimethyl-pyridin-4-yl)-phenyl]-1,3-dihydro-benzo[b][1,4]diazepin-2-one], 252 °C; in that of `Cc1cc(-c2cccc(C3=Nc4cc(C(F)(F)F)c(Cl)cc4NC(=O)C3)c2)cc(C)n1` [Example 128, 8-Chloro-4-[3-(2,6-dimethyl-pyridin-4-yl)-phenyl]-7-trifluoromethyl-1,3-dihydro benzo[b][1,4]diazepin-2-one], 207 °C.
For the molecule `Cc1cncc(-c2cccc(C3=Nc4cc(C(F)(F)F)c(C)cc4NC(=O)C3)c2)n1` [Example 130, 8-Methyl-4-[3-(6-methyl-pyrazin-2-yl)-phenyl]-7-trifluoromethyl-1,3-dihydro-benzo[b][1,4]diazepin-2-one], the melting point came to 211 °C.
`Cc1cncc(-c2cccc(C3=Nc4cc(C)c(Cl)cc4NC(=O)C3)c2)n1` [Example 131, 8-Chloro-7-methyl-4-[3-(6-methyl-pyrazin-2-yl)-phenyl]-1,3-dihydro-benzo[b][1,4]diazepin-2-one] returned a melting point of 235 °C.
